Article PMC5983288, “The Maxi-K (BK) Channel Antagonist Penitrem A as a Novel Breast Cancer-Targeted Therapeutic” (Marine Drugs, 2018)

Experiments:
[1] = test system: MCF-12A cells (non-tumorigenic human mammary epithelial cells); assay: MTT cell viability assay, MCF-12A; format: cell-based; settings: 48 h
Description: (§1) Penitrems were dissolved in dimethyl sulfoxide (DMSO) to provide a final 25 mM stock solution. Proper media were used to prepare penitrems at their final tested doses for each assay. […] The effects of penitrems 1–3 on the proliferation and growth of multiple BC cell lines were evaluated using MTT assay. MDA-MB-231, BT-474, and SK-BR-3 BC cells (ATCC, Manassas, VA, USA) were initially seeded at 1 × 10^4 cells/well (6 replicates/group) in 96-well plates in RPMI-1640 media containing 10% FBS, and allowed to attach overnight. The next day, cells were washed with PBS, divided into different treatment groups, and then given various concentrations of tested penitrems in 0.5% FBS containing media. Viable cell number was calculated after 48 h using the MTT assay.
(§2) To evaluate the effect of penitrems on growth of the human neuronal Schwann CRL 2765 (ATCC, Manassas, VA, USA), cells were plated at a density of 1 × 10^4 cell per well (6-wells/group) in 96-well culture plates using the ATCC-recommended media (Dulbecco’s Modified Eagle’s Medium, DMEM) and allowed to adhere overnight for growth studies, after which each treatment was added, and cells were maintained for 48 h. Similarly, the non-tumorigenic mammary epithelial MCF-12A cells were plated in DMEM/F12 supplemented with 5% horse serum, […], 20 ng/mL EGF, 100 U/mL penicillin, 0.1 mg/mL streptomycin, and […]. Next day, cells were divided into different groups and fed serum-free DMEM media supplemented with experimental treatments or vehicle-treated control media. Viable cell number was determined using the MTT colorimetric assay. The absorbance was measured at λ570 nm on a BioTek Synergy2 microplate reader (BioTek, Winooski, VT, USA). The number of cells per well was calculated against a standard curve prepared at the start of the experiment. The IC50 value for each tested sample was calculated by non-linear regression of log concentration versus the % survival, implemented in GraphPad® PRISM version 5.0 (Graph Pad Software, Inc., La Jolla, CA, USA).

[2] = test system: human neuronal Schwann cells CRL-2765; assay: MTT cell viability assay, Schwann CRL-2765; format: cell-based; settings: CRL-2765, MTT, 48 h
Description: as §1, §2

MDA-MB-231 cells = assay: MTT cell viability assay, MDA-MB-231; format: cell-based, human; settings: MDA-MB-231, MTT, 48 h
Description: as §1, §2

BT-474 cells = assay: cells; format: cell-based, human
Description: as §1, with “MDA-MB-231, BT-474, and SK-BR-3 BC cells (ATCC, Manassas, VA, USA) were initially seeded at 1 × 10^4 cells/well (6 replicates/group) in 96-well plates in RPMI-1640 media containing 10% FBS, and allowed to attach overnight.” left out
as §2, with “Similarly,” for “To evaluate the effect of penitrems on growth of the human neuronal Schwann CRL 2765 (ATCC, Manassas, VA, USA), cells were plated at a density of 1 × 10^4 cell per well (6-wells/group) in 96-well culture plates using the ATCC-recommended media (Dulbecco’s Modified Eagle’s Medium, DMEM) and allowed to adhere overnight for growth studies, after which each treatment was added, and cells were maintained for 48 h. Similarly,”

SK-BR-3 cells = assay: MTT cell viability assay, SK-BR-3; format: cell-based, human; settings: SK-BR-3, MTT, 48 h
Description: as §1, §2

[3] = test system: BK channel subunits α-1 (KCNMA1); assay: Western blot, BK channel expression in BC cells; format: cell-based, human; settings: MDA-MB-231, BT-474, SK-BR-3; 10 µM treatments; vs control
Description: (§3) MDA-MB-231, BT-474, SK-BR-3, Schwann CRL-2765, and MCF-12A cells, were plated at a density of 1 × 10^6 cells/100 mm culture plates. MDA-MB-231, BT-474, and SK-BR-3 were plated in RPMI-1640 media supplemented with 10% FBS, Schwann cells CRL-2765 were plated in DMEM media supplemented with 10% FBS [11], and MCF-12A cells were plated in DMEM/F12 supplemented with ingredients described earlier. Cells were allowed to adhere overnight, then washed twice with PBS, and starved in control or treatment in serum-free medium containing 0.5% FBS for 48 h to synchronize the cells in G1 phase. Afterwards, cells were treated with tested penitrems in serum-free defined media for 24 h. At the end of treatment periods, cells were lysed in RIPA buffer (Qiagen Sciences Inc., Valencia, CA, USA). Protein concentration was determined by the BCA assay (Bio-Rad, Hercules, CA, USA). Equivalent amounts of protein (50 µg) were electrophoresed on SDS-polyacrylamide gels. The gels were then electroblotted onto PVDF membranes. These PVDF membranes were then blocked with 2% BSA in 10 mM Tris-HCl containing 50 mM NaCl and 0.1% Tween 20, pH 7.4 (TBST), and then incubated with specific primary antibodies overnight at 4 °C. […] Western blot quantification analysis was done using Image Lab ^TM Software (Bio-Rad, Hercules, CA, USA) for total protein normalization.

TNF-α = assay: Western blot, TNF-α levels in BC cells; format: cell-based, human; settings: MDA-MB-231, BT-474, SK-BR-3; 10 µM treatments; vs control
Description: as §3

[4] = test system: BK channel subunits α-1 (KCNMA1); assay: Immunocytochemical fluorescence staining of KCNMA1; format: cell-based, human; settings: MDA-MB-231 (9.8 µM) and BT-474 (10.3 µM), 24 h, vs vehicle-treated controls
Description: Immunocytochemical fluorescent studies were conducted by growing MDA-MB-231 and BT-474 cells mammary cancer cells on 8-chamber culture slides (Becton Dickinson and Company, Franklin Lakes, NJ, USA) at a density of 2 × 10^4 cells/chamber (2 replicates/group), and allowed to attach overnight in complete serum media supplemented with 10% FBS. […] At the end of experiment, cells were washed with pre-cooled PBS, and fixed with acetone, pre-cooled to −20 °C, for 2 min. Fixed cells were then washed with PBS, and blocked with 2% BSA in 10 mM Tris-HCl containing 50 mM NaCl and 0.1% Tween 20, pH 7.4 (TBST) for 1 h at rt. Cells were then incubated with specific primary antibody for BK channel KCNMA1 (1:300) overnight at 4 °C in 2% BSA-TBST. At the end of incubation time, cells were washed five times with pre-cooled PBS, followed by incubation with Alexa-Fluor 594-conjugated secondary antibody (1:5000) in 2% BSA-TBST for 1 h at rt. After final washing for five times with PBS, cells were embedded in Vectashield Mounting Medium with DAPI (Vector Laboratories Inc., Burlingame, CA, USA). Fluorescent images were obtained by using a confocal laser scanning microscope (Carl Zeiss Microimaging Inc., Thornwood, NY, USA). The red color indicates the positive fluorescence staining for BK channel KCNMA1, and the blue color represents MDA-MB-231 cell nuclei counter-stained with DAPI [30]. […]

BK channels = test system: BK channels; design: method as in PMID 27834847, PMID 14593856; settings: cited from earlier work
[5] = Homo sapiens, BT-474, MTT, 48 h

Row | Compound | IC50 ([1]; Homo sapiens) [µM] | IC50 ([2]; Homo sapiens) [µM] | IC50 (MDA-MB-231 cells; Homo sapiens) [µM] | IC50 (BT-474 cells; [5]) [µM] | IC50 (SK-BR-3 cells; Homo sapiens) [µM] | total levels of BK channel subunits α-1 (KCNMA1) [3] | total levels of TNF-α (TNF-α) | IC50 (BT-474 cells; Homo sapiens, BT-474, single agent) [µM] | IC50 [1] [µM] | IC50 [2] [µM] | IC50 (MDA-MB-231 cells) [µM] | IC50 (BT-474 cells; BT-474, MTT, 48 h) [µM] | IC50 (SK-BR-3 cells) [µM] | total levels of KCNMA1 (immunofluorescence) [4] | BK channels antagonism (BK channels)
1 | C=C(C)[C@H]1O[C@H]2CC[C@@]3(C)[C@@](O)(CC[C@H]4[C@@H]5OC(C)(C)[C@H]6C[C@@H]7C(=C)Cc8ccc9[nH]c(c5c9c8[C@@]76O)[C@@]43C)[C@]23O[C@@H]3[C@H]1O [Compound 2, Penitrem E] | 44 | 67.8 | 20.3 | 31.8 | 36.7 | did not cause changes | increased total levels of TNF-α in both BT-474 and SK-BR-3 cells |  |  |  |  |  |  |  | 
2 | C=C(C)C1OC2CCC3(C)C4(C)c5[nH]c6cc(Cl)c7c8c6c5C(OC(C)(C)C5CC(C(=C)C7)C85O)C4CCC3(O)C23OC3C1OC (stereo not shown) [Compound 3, 25-O-methylpenitrem A] | 78.8 | 48.2 | 37.8 | 22.4 | 27.1 |  |  |  |  |  |  |  |  |  | 
3 | CS(=O)(=O)CCNCc1ccc(-c2ccc3ncnc(Nc4ccc(OCc5cccc(F)c5)c(Cl)c4)c3c2)o1 [LP, lapatinib, reference compound] |  |  |  |  |  |  |  | 0.123 |  |  |  |  |  |  | 
4 | Penitrem A [Compound 1] |  |  |  |  |  | greatest reduction | increased total levels of TNF-α |  | 33.7 | 22.6 | 9.8 | 10.3 | 15.1 | remarkable reduction | potent BK channels antagonist at very low molar concentration
